Our source for the Potency code values is US20200392116A1, “SUBSTITUTED HETEROCYCLES AS c-MYC TARGETING AGENTS” (NORTHWESTERN UNIVERSITY, priority 2019, published 2020).

The nature of this assay: Potency code of Table 2 (assay not stated).
As for `Cn1nc(C(F)(F)F)cc1-c1ccc(OCc2ccc(Cl)cc2)cc1Cl` [NUCC-0200744], the Potency code result was “+ (>40 +)”.

With `Cn1nc(C(F)(F)F)cc1-c1ccc(OCc2ccc(Cl)cc2)cc1N` [NUCC-0200745], the Potency code entry is given as “+ (>40 +)”.

With `Cn1cc(-c2ccc(OCc3ccc(Cl)cc3)cc2N)c(C(F)(F)F)n1` [NUCC-0200746], the Potency code result is listed as “+ (>40 +)”.

Turning to `Cn1cc(-c2cnc(OCc3ccc(Cl)cc3)cn2)c(C(F)(F)F)n1` [NUCC-0200747], the Potency code result is “+ (>40 +)”. For the molecule `Cn1nc(C(F)(F)F)cc1-c1ccc(OCc2ccc(Cl)cc2)cc1C#N` [NUCC-0200812], the Potency code entry is “+ (>40 +)”. Under `Cn1cc(-c2ccc(OCc3ccc(Cl)cc3)cc2CO)c(C(F)(F)F)n1` [NUCC-0200813] stands “+ (>40 +)”; under `Cn1cc(-c2ccc(OCc3ccc(Cl)cc3)cc2Cl)c(C(F)(F)F)n1` [NUCC-0200814], “+ (>40 +)”. For `Cn1cc(-c2ccc(OCc3ccc(Cl)cc3)cc2C=O)c(C(F)(F)F)n1` [NUCC-0200815], the Potency code result is given as “+ (>40 +)”. To `Cn1nc(C(F)(F)F)cc1-c1ccc(OCc2ccc(Cl)cc2)cc1C(N)=O` [NUCC-0200816] belongs “+ (>40 +)”.

For the molecule `Cn1nc(C(F)(F)F)cc1-c1ccc(NC(=O)c2ccc(Cl)cc2)cc1O` [NUCC-0200817], the Potency code entry is recorded as “+ (>40 +)”. With `COC(=O)c1cc(-c2ccc(OCc3ccc(Cl)cc3)c(-c3cc(C(F)(F)F)cc(C(F)(F)F)c3)c2O)nn1C` [NUCC-0200970], the Potency code result was “+ (>40 +)”. `Cn1nc(-c2ccc(OCc3ccc(Cl)cc3)c(-c3cc(C(F)(F)F)cc(C(F)(F)F)c3)c2O)cc1C(=O)O` [NUCC-0200971]: the Potency code result is “++++ (<10 ++++)”. Under `O=C(O)c1cc(-c2ccc(OCc3ccc(Cl)cc3)c(-c3cc(C(F)(F)F)cc(C(F)(F)F)c3)c2O)n[nH]1` [NUCC-0200973] stands “++++ (<10 ++++)”; under `Cn1nc(C(F)(F)F)cc1-c1ccc(OCc2ccc(Cl)cc2)c(-c2cccc(C(F)(F)F)c2)c1O` [NUCC-0200974], “+ (>40 +)”. Consider `Cn1nc(C(F)(F)F)cc1-c1ccc(OCc2ccc(Cl)cc2)c(-c2ccc(Cl)c(C(F)(F)F)c2)c1O` [NUCC-0200975], for which the Potency code entry is recorded as “+ (>40 +)”.

For `Cn1nc(C(F)(F)F)cc1-c1ccc(OCc2ccc(Cl)cc2)cc1F` [NUCC-0200977], the Potency code entry is “+ (>40 +)”. To `Cn1nc(C(F)(F)F)cc1-c1ccc(OCc2ccc(Cl)cc2)cc1CO` [NUCC-0200978] belongs “+ (>40 +)”; to `Cn1nc(C(F)(F)F)c(Br)c1-c1ccc(OCc2ccc(Cl)cc2)cc1C#N` [NUCC-0200979], “+ (>40 +)”. For the molecule `Cn1nc(-c2ccc(OCc3cccnc3)c(-c3cc(C(F)(F)F)cc(C(F)(F)F)c3)c2O)cc1C(F)(F)F` [NUCC-0201023], the Potency code result is “+ (>40 +)”. Under `Oc1c(-c2cc(C(F)(F)F)n[nH]2)ccc(OCCc2ccc(Cl)cc2)c1-c1cc(C(F)(F)F)cc(C(F)(F)F)c1` [NUCC-0201024] stands “++++ (<10 ++++)”; under `Cn1nc(C(F)(F)F)cc1-c1ccc(OCCc2ccc(Cl)cc2)c(-c2cc(C(F)(F)F)cc(C(F)(F)F)c2)c1O` [NUCC-0201025], “++ (30-40 ++)”; under `Cn1nc(-c2ccc(OCCc3ccc(Cl)cc3)c(-c3cc(C(F)(F)F)cc(C(F)(F)F)c3)c2O)cc1C(F)(F)F` [NUCC-0201026], “+ (>40 +)”. `COc1ccc(CCOc2ccc(-c3cc(C(F)(F)F)n[nH]3)c(O)c2-c2cc(C(F)(F)F)cc(C(F)(F)F)c2)cc1` [NUCC-0201027]: the Potency code result is listed as “+++ (10-30 +++)”.

`COc1ccc(CCOc2ccc(-c3cc(C(F)(F)F)nn3C)c(O)c2-c2cc(C(F)(F)F)cc(C(F)(F)F)c2)cc1` [NUCC-0201028]: the Potency code result is on record as “+ (>40 +)”. Under `COc1ccc(CCOc2ccc(-c3cc(C(F)(F)F)n(C)n3)c(O)c2-c2cc(C(F)(F)F)cc(C(F)(F)F)c2)cc1` [NUCC-0201029] stands “+ (>40 +)”.

Consider `CC(C)COc1ccc(-c2cc(C(F)(F)F)n[nH]2)c(O)c1-c1cc(C(C)(F)F)cc(C(F)(F)F)c1` [NUCC-0201030], for which the Potency code result is reported as “+ (>40 +)”.

For the molecule `CCCCOc1ccc(-c2cc(C(F)(F)F)n[nH]2)c(O)c1-c1cc(C(F)(F)F)cc(C(F)(F)F)c1` [NUCC-0201031], the Potency code entry is “+ (>40 +)”. To `Oc1c(-c2cc(C(F)(F)F)n[nH]2)ccc(OCc2ccc(F)cc2)c1-c1cc(C(F)(F)F)cc(C(F)(F)F)c1` [NUCC-0201033] belongs “+ (>40 +)”. To `Cn1nc(C(F)(F)F)cc1-c1ccc(OCc2ccc(F)cc2)c(-c2cc(C(F)(F)F)cc(C(F)(F)F)c2)c1O` [NUCC-0201034] belongs “+ (>40 +)”. On to `Cn1nc(-c2ccc(OCc3ccc(F)cc3)c(-c3cc(C(F)(F)F)cc(C(F)(F)F)c3)c2O)cc1C(F)(F)F` [NUCC-0201035], for which the Potency code entry is “+ (>40 +)”. To `CS(=O)(=O)c1cccc(-c2c(OCc3ccc(Cl)cc3)ccc(-c3cc(C(F)(F)F)n[nH]3)c2O)c1` [NUCC-0201036] belongs “++ (30-40 ++)”; to `Oc1c(-c2cc(C(F)(F)F)n[nH]2)ccc(OCc2ccc(Cl)cc2)c1-c1cncc(C(F)(F)F)c1` [NUCC-0201037], “+++ (10-30 +++)”. Under `N#Cc1cncc(-c2c(OCc3ccc(Cl)cc3)ccc(-c3cc(C(F)(F)F)n[nH]3)c2O)c1` [NUCC-0201038] stands “++++ (<10 ++++)”; under `CCOc1ncc(C(F)(F)F)cc1-c1c(OCc2ccc(Cl)cc2)ccc(-c2cc(C(F)(F)F)n[nH]2)c1O` [NUCC-0201039], “+++ (10-30 +++)”. Turning to `Oc1c(-c2cc(C(F)(F)F)n[nH]2)ccc(OCc2ccc(Cl)cc2)c1-c1cncc(F)c1` [NUCC-0201040], the Potency code result is on record as “+++ (10-30 +++)”. In the case of `COc1ccc(COc2ccc(-c3cc(C(F)(F)F)n[nH]3)c(O)c2-c2cc(C(F)(F)F)cc(C(F)(F)F)c2)cc1` [NUCC-0201041], the Potency code result was “+ (>40 +)”.

For the molecule `COc1ccc(COc2ccc(-c3cc(C(F)(F)F)nn3C)c(O)c2-c2cc(C(F)(F)F)cc(C(F)(F)F)c2)cc1` [NUCC-0201042], the Potency code result is reported as “+ (>40 +)”. Under `COc1ccc(COc2ccc(-c3cc(C(F)(F)F)n(C)n3)c(O)c2-c2cc(C(F)(F)F)cc(C(F)(F)F)c2)cc1` [NUCC-0201043] stands “+ (>40 +)”.

As to `CCCCCCOc1ccc(-c2cc(C(F)(F)F)n[nH]2)c(O)c1-c1cncc(C(F)(F)F)c1` [NUCC-0201192], the Potency code entry is reported as “+++ (10-30 +++)”. As for `CCCCOc1ccc(-c2cc(C(F)(F)F)n[nH]2)c(O)c1-c1cncc(C#N)c1` [NUCC-0201193], the Potency code result is on record as “++++ (<10 ++++)”.

Regarding `CCCCCCOc1ccc(-c2cc(C(F)(F)F)n[nH]2)c(O)c1-c1cncc(C#N)c1` [NUCC-0201194], the Potency code entry is “+ (>40 +)”. On to `CC(C)CCOc1ccc(-c2cc(C(F)(F)F)n[nH]2)c(O)c1-c1cncc(C#N)c1` [NUCC-0201195], for which the Potency code result is on record as “++++ (<10 ++++)”.

As for `CCCOc1ccc(-c2cc(C(F)(F)F)n[nH]2)c(O)c1-c1cc(C(F)(F)F)cc(C(F)(F)F)c1` [NUCC-0201197], the Potency code result was “+++ (10-30 +++)”. Turning to `[N-]=[N+]=NCCOCCOCCOCC(=O)Nc1ccc(COc2ccc(-c3cc(C(F)(F)F)n[nH]3)c(O)c2-c2cc(C(F)(F)F)cc(C(F)(F)F)c2)cc1` [NUCC-0201199], the Potency code entry is recorded as “+++ (10-30 +++)”.
